Source: article PMC4872591, “An evaluation of Minor Groove Binders as anti-Trypanosoma brucei brucei therapeutics” (European Journal of Medicinal Chemistry, 2016)
Like-named read-outs stand apart in the source and are kept apart here. Marks after values point to notes of the source that are not given here.

Legend:
HEK 293 cells = assay: HEK 293 cytotoxicity assay (AlamarBlue viability); assay type: cell-based, human; conditions: for SI (selectivity index): HEK 293 IC50 taken as 20 μM (10 μM estimated for compound 21) versus T. b. brucei IC50
Experimental: Compounds were tested in an AlamarBlue viability assay using fluorescent intensity as the output. Briefly, Human Embryonic Kidney cells (HEK 293) were cultured in DMEM (Dulbeccos Modified Eagle Medium) plus 10% Foetal Bovine Serum (FBS) in a humidified environment at 37 °C and 5% CO2. Cells were harvested at 80% confluence and plated into 384-well tissue culture treated black walled clear base plates at 2000 cells per well in a volume of 45 μl and incubated overnight to equilibrate. Five μl of compounds in serial dilution format, including Puromycin as a positive control and 0.4% DMSO as the negative control, were transferred into the plates containing the equilibrated HEK293 cells. The plates were incubated for a further 72 h before “flicking” the compound containing media out and replacing with 40 μL of 10% AlamarBlue® in DMEM without FBS. The assay plates were returned to the incubator for 6 h then the total fluorescent intensity determined at 535 nm excitation and 585 nm emission using the Perkin Elmer ENVISION 2101 Multilabel Reader. Fluorescent intensity values were normalized as percent inhibition in relation to the positive and negative controls of 5 μM Puromycin and 0.4% DMSO, respectively. The compounds were tested in two separate experiments each in duplicate point.

[1] = test system: Bloodstream form T. b. brucei (Lister 427); assay: Trypanosoma brucei brucei Alamar Blue assay; assay type: cell-based; conditions: Trypanosoma brucei
Experimental: IC50 values against trypanosomes were determined by Alamar Blue assay. […] After this time, 20 μL of resazurin dye (Sigma–Aldrich) solution at 0.49 mM was added. […] Output was plotted using the IC50 determination algorithm of Prism 5.0 software (GraphPad). Three independent experiments were carried out in duplicate for each compound.

T. b. brucei = assay: Fluorescence microscopy, intracellular localisation in T. b. brucei; assay type: cell-based, Trypanosoma brucei brucei; conditions: 50 μM, 2 h, FITC and DsRed filters
Experimental: Fig. 6 Intracellular localisation of fluorescent MGB in T. b. brucei. Trypanosomes were treated for 2 h with 50 μM of MGB and viewed at 100 × magnification. N = nucleus; K = kinetoplast; arrow = other organelles. Bar = 10 μm.
T. b. brucei parasites (1 × 10^7 cell/mL) were treated with 50 μM of compound 32 for 2 h at 37 °C in a humidified, 5% CO2 atmosphere. After washing in PBS, an aliquot of cells was mixed with an equal volume of 2% w/v low melting point agarose (Sigma–Aldrich) and spread onto a slide by addition of a coverslip. Slides were viewed using a Zeiss Axioplan 2 Imaging epifluorescence microscope, equipped with a digital CCD camera (Hammatsu Photonics) and a Plan[…] 100 × oil-immersion NA 1.4 objective (Carl Zeiss). FITC (excitation 450–490 nm, beamsplitter 510 nm, emission 515–565 nm) and DsRed (excitation 545/25 nm, beamsplitter 570 nm, emission 605/70 nm) filter sets were used, and images acquired using Volocity imaging software (Improvision).

[2] = test system: kinetoplast of trypanosome; set-up: method as in PMID 16723581; conditions: cited from earlier work
[3] = Table 1, Alamar Blue, 48 h + 24 h, all standard deviations less than 2%, read-out: IC50 against Trypanosoma brucei brucei
[4] = Table 2, read-out: Trypanosoma brucei brucei IC50
[5] = values given in nM, read-out: IC50 against T. b. brucei

SMILES | % HEK 293 Inhibition at 20 μM (HEK 293 cells; 20 μM, 72 h, HEK 293) | SI (selectivity index) (HEK 293 cells) | IC50 [1, 3] [nM] | IC50 [1, 4] [nM] | IC50 [1, 5] [nM] | other results
Cn1cc(NC(=O)c2cc(NC(=O)c3cc(NC(=O)c4cc5ccccc5cn4)cn3C)cn2C)cc1C(=O)NCCCN1CCOCC1 [Compound 8, N-[1-Methyl-5-({[1-methyl-5-({[1-methyl-5-({[3-(4-morpholinyl)propyl]amino}carbonyl)-1H-pyrrol-3-yl]amino}carbonyl)-1H-pyrrol-3-yl]amino}carbonyl)-1H-pyrrol-3-yl]-3-isoquinolinecarboxamide] | N/A (N/A is an IC50 value > 20 μM) | >2941 | 6.8 | 6.8 | < 40 | –
CC(C)CCc1sc(NC(=O)c2cc(NC(=O)c3ccc(/C=C/c4ccc5ccccc5c4)cc3)cn2C)nc1C(=O)NCCN1CCOCC1 [Compound 20, 5-isopentyl-2-({[1-methyl-4-({4-[(E)-2-(2-naphthyl)ethenyl]benzoyl}amino)-1H-pyrrol-2-yl]carbonyl}amino)-N-[2-(4-morpholinyl)ethyl]-1,3-thiazole-4-carboxamide] | N/A (N/A is an IC50 value > 20 μM) | >500 | 40 | 40 | < 40 | –
CC(C)CCc1sc(NC(=O)c2cc(NC(=O)c3cc(/C=C/c4ccc([N+](=O)[O-])cc4)cn3C)cn2C)nc1C(=O)NCCN1CCOCC1 [Compound 21, 5-isopentyl-2-[({1-methyl-4-[({1-methyl-4-[(E)-2-(4-nitrophenyl)ethenyl]-1H-pyrrol-2-yl}carbonyl)amino]-1H-pyrrol-2-yl}carbonyl)amino]-N-[2-(4-morpholinyl)ethyl]-1,3-thiazole-4-carboxamide] | – | >1851* | 5.4 | 5.4 | < 40 | inhibition at 20 µM (HEK 293 cells; Homo sapiens, HEK293, 20 μM, 72 h, HEK 293): 54%; IC50 (HEK 293 cells; Homo sapiens, HEK293, read-out: estimated IC50 against HEK 293 cells): ~10000 nM
Cn1cc(NC(=O)c2cc(NC(=O)c3ccc(/C=C/c4ccc5nsnc5c4)cc3)cn2C)cc1C(=O)NCCN1CCOCC1 [Compound 28, 4-({4-[(E)-2-(2,1,3-benzothiadiazol-5-yl)ethenyl]benzoyl}amino)-1-methyl-N-[1-methyl-5-({[2-(4-morpholinyl)ethyl]amino}carbonyl)-1H-pyrrol-3-yl]-1H-pyrrole-2-carboxamide] | N/A (N/A is an IC50 value > 20 μM) | >2739 | 7.3 | 7.3 | < 40 | –
Cn1cc(NC(=O)c2cc(NC(=O)c3ccc(/C=C/c4ccc5nonc5c4)cc3)cn2C)cc1C(=O)NCCN1CCOCC1 [Compound 29, 4-({4-[(E)-2-(2,1,3-benzoxadiazol-5-yl)ethenyl]benzoyl}amino)-1-methyl-N-[1-methyl-5-({[2-(4-morpholinyl)ethyl]amino}carbonyl)-1H-pyrrol-3-yl]-1H-pyrrole-2-carboxamide] | N/A (N/A is an IC50 value > 20 μM) | >1052 | 19 | 19 | < 40 | –
CSc1ccc(/C=C/c2ccc3cc(C(=O)Nc4cc(C(=O)Nc5cc(C(=O)NCCN6CCOCC6)n(C)c5)n(C)c4)ccc3n2)cc1 [Compound 31, N-[1-methyl-5-({[1-methyl-5-({[2-(4-morpholinyl)ethyl]amino}carbonyl)-1H-pyrrol-3-yl]amino}carbonyl)-1H-pyrrol-3-yl]-2-{(E)-2-[4-(methylsulfanyl)phenyl]ethenyl}-6-quinolinecarboxamide] | – | – | 5000 | – | – | –
CN(C)c1ccc(/C=C/c2ccc(C(=O)Nc3cc(C(=O)Nc4cc(C(=O)NCCN5CCOCC5)n(C)c4)n(C)c3)cn2)cc1 [Compound 32, 6-{(E)-2-[4-(Dimethylamino)phenyl]ethenyl}-N-[1-methyl-5-({[1-methyl-5-({[2-(4-morpholinyl)ethyl]amino}carbonyl)-1H-pyrrol-3-yl]amino}carbonyl)-1H-pyrrol-3-yl]nicotinamide] | – | – | 170 | – | – | Intracellular localisation in the trypanosome (T. b. brucei): localisation to the nucleic acid rich regions of the nucleus and kinetoplast
N=C(N)c1ccc(/N=N/Nc2ccc(C(=N)N)cc2)cc1 [Diminazene, diminazene, reference compound] | – | – | – | – | 5 | –
N=C(N)c1ccc(-c2ccc(-c3ccc(C(=N)N)cc3)o2)cc1 [Furamidine, furamidine] | – | – | – | – | – | exposure time to destruction of the kinetoplast [2]: ≤ 24 h
COc1ccc(C[C@H](N)C(=O)N[C@H]2[C@@H](O)[C@H](n3cnc4c(N(C)C)ncnc43)O[C@@H]2CO)cc1 [Puromycin, reference compound] | – | – | – | – | – | IC50 (HEK 293 cells; Homo sapiens, HEK293, positive control, two separate independent experiments, read-out: IC50 against HEK 293 cells): 350 nM
N=C(N)c1ccc(OCCCCCOc2ccc(C(=N)N)cc2)cc1 [pentamidine] | – | – | – | – | – | exposure time to destruction of the kinetoplast [2]: ≤ 24 h
